Measured values taken from patent US11950907B2, “Method for non-invasive monitoring of fluorescent tracer agent with diffuse reflecting medium with time-varying optical properties” (MediBeacon Inc., priority 2017, dated 2024).

Assays:
[1] = Absorption and emission spectra of the exogenous fluorescent agent (FIG. 3); type: physicochemical
Text: By way of illustrative example, FIG. 3 is a graph summarizing the absorption spectra for HbO2 and Hb, as well as the absorption and emission spectra of frequency spectra of MB-102, an exogenous fluorescent agent in one aspect. Emission spectra for a blue LED light source and a green LED light source are also shown superimposed over the other spectra of FIG. 3. In this aspect, the system 200 may include a blue LED as the first light source 218, and the excitatory wavelength for the system 200 may be the isosbestic wavelength of about 450 nm. […] However, at wavelengths above about 500 nm, the HbO2/Hb spectra are less steeply sloped, and a broader band light source including, but not limited to, an LED with a bandpass filter may suffice for use as a first light source 218.
In another aspect, the excitatory wave length may be selected to enhance the contrast in light absorbance between the exogenous fluorescent agent and the chromophores within the tissues of the patient 202. […] Without being limited to any particular theory, a higher proportion of light illuminating the tissue of the patient 202 at a wavelength of about 450 nm will be absorbed by the MB-102 relative to the HbO2 and Hb, thus enhancing the efficiency of absorption by the MB-102 and reducing the intensity of light at the excitatory wavelength needed to elicit a detectable fluorescence signal. […]

[2] = Transdermal fluorescence monitoring of renal elimination of the agent during perturbations (Example 1); type: in vivo; settings: pig, time points later than 2 hours after agent injection, no baseline subtraction, FIG. 21B
Text: A system similar to the system 200 described herein above was used to monitor the fluorescence produced during the renal elimination of an exogenous fluorescent agent, MB-102, using the methods described herein above, in particular the diffuse reflectance data correction method.
FIG. 21A is a graph summarizing the changes in the magnitude of the raw fluorescence signal (Flr) just prior to injection of the MB-102 fluorescent agent into a pig and for about six hours post-injection. During the post-equilibration portion, corresponding to a time of about 13:45 in FIG. 21A, the pig was subjected to a series of perturbations selected to vary the optical properties of the pig's skin and/or underlying tissues: administration of blood pressure medications to induce vasodilation/vasorestriction 2102, application of pressure to compress the tissue 2104, lateral movement of the sensor head 2106, SpO2 decrease 2108, SpO2 decrease 2110, remove/replace sensor head 2112/2114, and skin cooling 2116.
FIG. 21B is a graph summarizing the corrected intrinsic fluorescence signal (IF) corrected as described herein above with no baseline subtraction.

[3] = Transdermal fluorescence measurements from a patient before and after injection of the agent (FIG. 15); type: in vivo; settings: about 10 hours after injection, after peak concentration
Method: FIG. 15 is a graph of fluorescence measurements obtained from a patient over a period of about 10 hours after injection of an exogenous fluorescence agent (MB-102) after a pre-injection period of about 3 hours. Referring to FIG. 15, the pre-injection/baseline period 1502 is characterized by a relatively low and stable fluorescence level, likely due the absence of […] fluorescent agent in the blood of the patient. […] Without being limited to any particular theory, it is thought the injected exogenous fluorescence agent is likely equilibrated across the extra-cellular space once the decay of the fluorescence is well-described by a […] (or a line on semi-log plot).

## Nc1nc(C(=O)N[C@H](CO)C(=O)O)c(N)nc1C(=O)N[C@H](CO)C(=O)O [MB-102]
[1]; at the isosbestic wavelength of 452 nm
  light absorption relative to HbO2 and Hb: more than three-fold higher
[1]; emission spectrum
  emission peak wavelength: about 550 nm
[2]
  time course of corrected intrinsic fluorescence (IF) signal: expected single-exponential decay of the signal
[3]
  time course of fluorescence after injection: relatively smooth exponential decrease
